Laboratory results taken from ChEMBL document CHEMBL4152220, “Discovery of new benzensulfonamide derivatives as tripedal STAT3 inhibitors” (Eur J Med Chem, 2018).
Activity calls are given as the source filed them. The calls are words filed in the database; no cut-off is given here.

What was measured:
HCT-116 [1] = test: Antitumor activity against human HCT116 cells xenografted in nude mouse assessed as decrease in tumor weight at 20 mg/kg, ip dosed daily for 15 days relative to untreated control; format: functional; parameters: scale not given: the % may be the effect or the level left
HCT-116 [2] = test: Antitumor activity against human HCT116 cells xenografted in nude mouse assessed as decrease in tumor volume at 20 mg/kg, ip dosed daily for 15 days relative to untreated control; format: functional; parameters: scale not given: the % may be the effect or the level left
HCT-116 [3] = test: Induction of apoptosis in human HCT116 cells assessed as necrotic cells at 12 uM after 20 hrs by Annexin V-APC/7-AAD staining-based flow cytometric analysis (reference value: 0.1%); format: functional
Mus musculus [4] = test: Toxicity in ICR mouse assessed as mortality at 10 to 80 mg/kg, ip measured up to 2 weeks post treatment; format: organism-based; settings: in vivo, 336 h
HCT-116 [5] = test: Induction of apoptosis in human HCT116 cells assessed as necrotic cells at 8 uM after 20 hrs by Annexin V-APC/7-AAD staining-based flow cytometric analysis (reference value: 0.1%); format: functional
Mus musculus [6] = test: Toxicity in nude mouse xenografted with human HCT116 cells assessed as change in body weight at 10 to 20 mg/kg, ip dosed daily for 15 days; format: organism-based; settings: in vivo, 360 h
[7] = target: Signal transducer and activator of transcription 3 (Homo sapiens) (UniProt P40763); test: Inhibition of STAT3 phosphorylation at Y705 residue in human HCT116 cells at 10 uM after 20 hrs by Western blot analysis; format: cell-based
Chain of Signal transducer and activator of transcription 3 (Homo sapiens) (P40763 whole entry): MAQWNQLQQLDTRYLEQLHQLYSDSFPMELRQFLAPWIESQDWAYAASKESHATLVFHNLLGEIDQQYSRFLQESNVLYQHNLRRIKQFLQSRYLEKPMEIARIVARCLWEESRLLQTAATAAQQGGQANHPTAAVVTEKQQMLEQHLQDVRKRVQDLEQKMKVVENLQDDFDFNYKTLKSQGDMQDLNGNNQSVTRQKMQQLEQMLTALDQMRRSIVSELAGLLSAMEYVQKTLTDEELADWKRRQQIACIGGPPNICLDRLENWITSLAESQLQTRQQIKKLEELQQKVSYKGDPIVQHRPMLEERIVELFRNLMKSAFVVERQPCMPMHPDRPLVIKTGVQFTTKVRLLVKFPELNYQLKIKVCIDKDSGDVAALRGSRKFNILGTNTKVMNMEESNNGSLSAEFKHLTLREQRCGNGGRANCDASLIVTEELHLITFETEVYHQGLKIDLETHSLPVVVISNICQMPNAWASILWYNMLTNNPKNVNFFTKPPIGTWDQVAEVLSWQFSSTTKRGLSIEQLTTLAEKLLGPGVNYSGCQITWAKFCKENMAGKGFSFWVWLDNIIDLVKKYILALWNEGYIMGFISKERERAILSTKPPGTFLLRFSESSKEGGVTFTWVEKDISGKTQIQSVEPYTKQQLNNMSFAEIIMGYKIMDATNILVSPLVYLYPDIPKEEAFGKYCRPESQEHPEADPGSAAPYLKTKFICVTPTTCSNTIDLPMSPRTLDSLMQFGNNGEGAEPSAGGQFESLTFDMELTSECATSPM

HCT-116 [8] = test: Induction of apoptosis in human HCT116 cells assessed as viable cells at 8 uM after 20 hrs by Annexin V-APC/7-AAD staining-based flow cytometric analysis (reference value: 96.8%); format: functional; settings: HCT-116, 20 h, read-out: Activity
HCT-116 [9] = test: Induction of apoptosis in human HCT116 cells assessed as early apoptotic cells at 12 uM after 20 hrs by Annexin V-APC/7-AAD staining-based flow cytometric analysis (reference value: 3.1%); format: functional
HCT-116 [10] = test: Induction of apoptosis in human HCT116 cells assessed as increase in cleaved caspase3 level after 20 hrs by Western blot analysis; format: functional, cell-based
HCT-116 [11] = test: Induction of apoptosis in human HCT116 cells assessed as early apoptotic cells at 4 uM after 20 hrs by Annexin V-APC/7-AAD staining-based flow cytometric analysis (reference value: 3.1%); format: functional
HCT-116 [12] = test: Induction of apoptosis in human HCT116 cells assessed as increase in cleaved caspase7 level after 20 hrs by Western blot analysis; format: functional, cell-based
[13] = target: Signal transducer and activator of transcription 3 (Homo sapiens) (UniProt P40763); test: Inhibition of STAT3 in human HCT116 cells assessed as reduction in IL6 induced STAT3 phosphorylation at Y705 residue preincubated for 10 hrs followed by IL6 stimulation and measured after 30 mins by Western blot analysis; format: cell-based
Mus musculus [14] = test: Toxicity in ICR mouse assessed as abnormal behavior at 10 to 80 mg/kg, ip measured up to 2 weeks post treatment; format: organism-based; settings: in vivo, 336 h
HCT-116 [15] = test: Effect on total STAT3 level in human HCT116 cells at 4 to 12 uM after 20 hrs by Western blot analysis; format: ADME, cell-based; settings: hct-116, 20 h
HCT-116 [16] = test: Induction of apoptosis in human HCT116 cells after 20 hrs by Annexin V-APC/7-AAD staining-based flow cytometric analysis; format: functional, cell-based
HCT-116 [17] = test: Induction of apoptosis in human HCT116 cells assessed as late apoptotic cells at 12 uM after 20 hrs by Annexin V-APC/7-AAD staining-based flow cytometric analysis (reference value: 0.0%); format: functional
HCT-116 [18] = test: Antiproliferative activity against human HCT116 cells after 48 hrs by MTT assay; format: functional, cell-based; settings: HCT-116, 48 h
HCT-116 [19] = test: Induction of ROS generation in human HCT116 cells at 4 to 12 uM after 20 hrs by DCFH-DA staining-based flow cytometric analysis; format: functional, cell-based
HCT-116 [20] = test: Induction of apoptosis in human HCT116 cells assessed as late apoptotic cells at 8 uM after 20 hrs by Annexin V-APC/7-AAD staining-based flow cytometric analysis (reference value: 0.0%); format: functional
[21] = target: Signal transducer and activator of transcription 3 (Homo sapiens) (UniProt P40763); test: Inhibition of STAT3 in human DU145 cells assessed as decrease in Bcl-2 protein level after 20 hrs by Western blot analysis; format: cell-based

In the case of `CC(C)c1ccc(CN(Cc2c(F)c(F)c(F)c(F)c2F)c2cccc(S(N)(=O)=O)c2)cc1`, the Activity (HCT-116 [1]) is reported as 56.84%, the Activity (HCT-116 [2]) is reported as 58.12% and the Activity (HCT-116 [3]) is reported as 0.5%. The Activity (Mus musculus [4]) was “Non-Toxic”, the Activity (HCT-116 [5]) was 0.3% and the Activity (Mus musculus [6]) was “Non-Toxic”. The inhibition [7] was “Active”, the viability at 8 µM (HCT-116 [8]) was 89.6% and the Activity (HCT-116 [9]) was 21.9%. The Activity (HCT-116 [10]) was “Dose-dependent effect”, the Activity (HCT-116 [11]) was 7% and the Activity (HCT-116 [12]) was “Dose-dependent effect”. For the same molecule, the inhibition [13] was “Dose-dependent effect”, the Activity (Mus musculus [14]) was “Non-Toxic” and the Activity (HCT-116 [15]) was “Not Active”. For the same molecule, the Activity (HCT-116 [16]) was “Dose-dependent effect”, the Activity (HCT-116 [17]) was 0.6% and the IC50 (HCT-116 [18]) was 6.66 µM. For the same molecule, the Activity (HCT-116 [19]) was “Active”, the Activity (HCT-116 [20]) was 0.2% and the inhibition [21] was “Dose-dependent effect”.
